Experimental data: patent US6103720A, “Ketobenzamides as calpain inhibitors” (BASF Aktiengesellschaft, priority 1996, dated 2000)

What was measured:
calpain = conditions: M. R. Angelastro et al., J. Med. Chem. 1990,33, 11-13; cited from earlier work
Human μ-calpain = biological target: T1, Human μ-calpain (Homo sapiens, UniProt P07384); experiment: Calpain I test (Ki, fluorogenic substrate Suc-Leu-Tyr-AMC); type: biochemical; conditions: human μ-calpain from erythrocytes, reversible inhibition
T1 construct: Human μ-calpain is isolated from erythrocytes; from tissue; host or cells: human erythrocytes (purified on DEAE Sepharose, phenyl Sepharose, Superdex 200 and Blue Sepharose)
T1 sequence (P07384 1-714): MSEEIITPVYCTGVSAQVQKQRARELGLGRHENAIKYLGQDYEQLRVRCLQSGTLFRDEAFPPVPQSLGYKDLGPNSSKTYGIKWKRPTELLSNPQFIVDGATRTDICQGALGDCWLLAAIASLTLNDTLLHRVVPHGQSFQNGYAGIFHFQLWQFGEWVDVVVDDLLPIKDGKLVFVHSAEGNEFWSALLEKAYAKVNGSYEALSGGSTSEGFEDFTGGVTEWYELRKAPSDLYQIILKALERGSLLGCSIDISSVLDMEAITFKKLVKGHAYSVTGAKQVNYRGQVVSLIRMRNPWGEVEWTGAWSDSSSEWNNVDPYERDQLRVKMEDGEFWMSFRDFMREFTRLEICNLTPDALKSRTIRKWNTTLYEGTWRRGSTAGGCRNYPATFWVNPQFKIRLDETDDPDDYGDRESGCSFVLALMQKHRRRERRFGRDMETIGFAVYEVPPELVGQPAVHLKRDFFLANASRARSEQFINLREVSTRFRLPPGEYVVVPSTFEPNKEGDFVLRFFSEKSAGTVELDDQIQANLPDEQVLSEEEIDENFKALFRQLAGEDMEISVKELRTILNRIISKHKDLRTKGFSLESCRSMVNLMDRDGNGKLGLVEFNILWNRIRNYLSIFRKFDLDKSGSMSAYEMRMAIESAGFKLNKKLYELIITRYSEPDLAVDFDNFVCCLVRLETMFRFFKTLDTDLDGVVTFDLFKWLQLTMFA
T1 sequence (P04632 1-268 partner): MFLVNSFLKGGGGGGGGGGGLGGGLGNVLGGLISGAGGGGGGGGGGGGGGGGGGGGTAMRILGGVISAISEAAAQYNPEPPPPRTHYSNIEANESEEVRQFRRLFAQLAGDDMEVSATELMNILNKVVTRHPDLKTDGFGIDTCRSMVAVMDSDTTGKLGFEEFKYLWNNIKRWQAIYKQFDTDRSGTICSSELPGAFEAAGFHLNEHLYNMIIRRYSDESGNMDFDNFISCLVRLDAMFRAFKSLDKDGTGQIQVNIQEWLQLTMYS
Experimental: Calpain I and Calpain II Test
The inhibitory properties of calpain inhibitors are tested in buffer containing 50 mM tris-HCl, pH 7.5; 0.1 M NaCl; 1 mM dithiotreithol [sic]: 0.11 mM CaCl2, using the fluorogenic calpain substrate Suc-Leu-Tyr-AMC (25 mM, dissolved in DMSO, Bachem/Switzerland) (Sasaki et al. J. Biol. Chem. 1984, Vol. 259, 12489-12494). Human μ-calpain is isolated from erythrocytes following the methods of Croall and DeMartino (BBA 1984, Vol. 788, 348-355) and Graybill et al. (Bioorg. & Med. Lett. 1995, Vol. 5, 387-392). After several chromatographic steps (DEAE Sepharose, phenyl Sepharose, Superdex 200 and Blue Sepharose), the enzyme is obtained at a purity of […], as assessed by SDS-PAGE, Western blot analysis and N-terminal sequencing. The fluorescence of the cleavage product 7-amino-4-methylcoumarin (AMC) is followed in a Spex-Fluorolog fluorimeter at λex =380 nm and λem =460 nm. […]
In a typical experimental mixture, 10 μl of substrate (250 μm final concentration) and then 10 μl of μ-calpain (2 μg/ml final concentration, ie. 18 nM) are added to a 1 ml cuvette which contains buffer. The calpain-mediated cleavage of the substrate is measured for from 15 to 20 min. […] Ki values are determined using the customary equation for reversible inhibition, ie. […]

Compound: COC(=O)C(=O)C(Cc1ccccc1)NC(=O)c1ccccc1 (centres unmarked) [Ph-CONH--CH(CH2 Ph)--CO--COOCH3]
- inhibitor of calpain (in words) (calpain): weak inhibitor

Compound: (S)-N-(1-Ethoxycarbonyl-1-oxo-3-phenylpropan-2-yl)-2-phenylbenzamide [Example 24]
- Ki (Human μ-calpain): < 10 µM
